Assay results taken from patent US9529005B2, “Modulating bacterial MAM polypeptides in pathogenic disease” (priority 2011, dated 2016).
≈ marks a conversion by molar mass, not a printed value. Like-named read-outs stand apart in the source and are kept apart here.

Key:
Experiment in all cases: Antimicrobial susceptibility testing (MIC), BD Phoenix Automated Microbiology System; on interpretation of the result: key: R, resistant; I, intermediate; S, susceptible; R*: *As a rule, when ESBL is detected, an interpretation of susceptible or intermediate for penicillins, cephalosporins and aztreonam is reported as resistant
Type in all cases: cell-based
Klebsiella ssp. = settings: for MIC: Klebsiella
Acinetobacter baumannii = settings: for MIC: Acinetobacter baumannii
Escherichia coli = settings: for MIC: Escherichia coli
Pseudomonas aeruginosa = settings: for MIC: Pseudomonas aeruginosa
[1] = Acinetobacter baumannii isolate 1
[2] = Acinetobacter baumannii isolate 2
[3] = Acinetobacter baumannii isolate 3
[4] = Acinetobacter baumannii isolate 4
[5] = Acinetobacter baumannii isolate 5
[6] = Pseudomonas aeruginosa isolate 1
[7] = Pseudomonas aeruginosa isolate 2
[8] = Pseudomonas aeruginosa isolate 3
[9] = Pseudomonas aeruginosa isolate 4
[10] = Pseudomonas aeruginosa isolate 5

| Compound | interpretation of the result (Klebsiella ssp.; Klebsiella ssp. isolate 1) | interpretation of the result (Klebsiella ssp.; Klebsiella ssp. isolate 2) | interpretation of the result (Klebsiella ssp.; Klebsiella ssp. isolate 3) | interpretation of the result (Klebsiella ssp.; Klebsiella ssp. isolate 4) | interpretation of the result (Klebsiella ssp.; Klebsiella ssp. isolate 5) | interpretation of the result (Acinetobacter baumannii; [1]) | interpretation of the result (Acinetobacter baumannii; [2]) | interpretation of the result (Acinetobacter baumannii; [3]) | interpretation of the result (Acinetobacter baumannii; [4]) | interpretation of the result (Acinetobacter baumannii; [5]) | interpretation of the result (Escherichia coli; Escherichia coli isolate 1) | interpretation of the result (Escherichia coli; Escherichia coli isolate 2) | interpretation of the result (Escherichia coli; Escherichia coli isolate 3) | interpretation of the result (Escherichia coli; Escherichia coli isolate 4) | interpretation of the result (Escherichia coli; Escherichia coli isolate 5) | interpretation of the result (Pseudomonas aeruginosa; [6]) | interpretation of the result (Pseudomonas aeruginosa; [7]) | interpretation of the result (Pseudomonas aeruginosa; [8]) | interpretation of the result (Pseudomonas aeruginosa; [9]) | interpretation of the result (Pseudomonas aeruginosa; [10]) | also measured |
| --- | --- | --- | --- | --- | --- | --- | --- | --- | --- | --- | --- | --- | --- | --- | --- | --- | --- | --- | --- | --- | --- |
| CN(C)[C@@H]1C(O)=C(C(N)=O)C(=O)[C@@]2(O)C(O)=C3C(=O)c4c(O)cccc4[C@@](C)(O)[C@H]3C[C@@H]12 [Tet., Tetracycline] | R | R | R | R | R | R | S | R | R | I | R | S | R | R | R | R | R | R | R | R | MIC (Klebsiella ssp.; Klebsiella ssp. isolate 1, read-out: minimal inhibiting concentration): > 8 µg/mL; MIC (Klebsiella ssp.; Klebsiella ssp. isolate 2, read-out: minimal inhibiting concentration): > 8 µg/mL; MIC (Klebsiella ssp.; Klebsiella ssp. isolate 3, read-out: minimal inhibiting concentration): > 8 µg/mL; MIC (Klebsiella ssp.; Klebsiella ssp. isolate 4, read-out: minimal inhibiting concentration): > 8 µg/mL; MIC (Klebsiella ssp.; Klebsiella ssp. isolate 5, read-out: minimal inhibiting concentration): > 8 µg/mL; MIC (Acinetobacter baumannii; Acinetobacter baumannii isolate 1, read-out: minimal inhibiting concentration): > 8 µg/mL; MIC (Acinetobacter baumannii; Acinetobacter baumannii isolate 2, read-out: minimal inhibiting concentration): 4 µg/mL (≈ 9 µM); MIC (Acinetobacter baumannii; Acinetobacter baumannii isolate 3, read-out: minimal inhibiting concentration): > 8 µg/mL; MIC (Acinetobacter baumannii; Acinetobacter baumannii isolate 4, read-out: minimal inhibiting concentration): > 8 µg/mL; MIC (Acinetobacter baumannii; Acinetobacter baumannii isolate 5, read-out: minimal inhibiting concentration): 8 µg/mL (≈ 18 µM); MIC (Escherichia coli; Escherichia coli isolate 1, read-out: minimal inhibiting concentration): > 8 µg/mL; MIC (Escherichia coli; Escherichia coli isolate 2, read-out: minimal inhibiting concentration): ≤ 2 µg/mL; MIC (Escherichia coli; Escherichia coli isolate 3, read-out: minimal inhibiting concentration): > 8 µg/mL; MIC (Escherichia coli; Escherichia coli isolate 4, read-out: minimal inhibiting concentration): > 8 µg/mL; MIC (Escherichia coli; Escherichia coli isolate 5, read-out: minimal inhibiting concentration): > 8 µg/mL; MIC (Pseudomonas aeruginosa; Pseudomonas aeruginosa isolate 1, read-out: minimal inhibiting concentration): > 8 µg/mL; MIC (Pseudomonas aeruginosa; Pseudomonas aeruginosa isolate 2, read-out: minimal inhibiting concentration): > 8 µg/mL; MIC (Pseudomonas aeruginosa; Pseudomonas aeruginosa isolate 3, read-out: minimal inhibiting concentration): > 8 µg/mL; MIC (Pseudomonas aeruginosa; Pseudomonas aeruginosa isolate 4, read-out: minimal inhibiting concentration): > 8 µg/mL; MIC (Pseudomonas aeruginosa; Pseudomonas aeruginosa isolate 5, read-out: minimal inhibiting concentration): > 8 µg/mL |
| NC[C@H]1O[C@H](O[C@H]2[C@H](O)[C@@H](O[C@H]3O[C@H](CO)[C@@H](O)[C@H](N)[C@H]3O)[C@H](N)C[C@@H]2N)[C@H](N)C[C@@H]1O [Tob., Tobramycin] | I | R | I | I | R | I | R | R | R | S | R | R | R | S | R | S | R | S | R | R | MIC (Klebsiella ssp.; read-out: minimal inhibiting concentration, Klebsiella ssp. isolate 1): 8 µg/mL (≈ 17.1 µM); MIC (Klebsiella ssp.; read-out: minimal inhibiting concentration, Klebsiella ssp. isolate 2): > 8 µg/mL; MIC (Klebsiella ssp.; read-out: minimal inhibiting concentration, Klebsiella ssp. isolate 3): 8 µg/mL (≈ 17.1 µM); MIC (Klebsiella ssp.; read-out: minimal inhibiting concentration, Klebsiella ssp. isolate 4): 8 µg/mL (≈ 17.1 µM); MIC (Klebsiella ssp.; read-out: minimal inhibiting concentration, Klebsiella ssp. isolate 5): > 8 µg/mL; MIC (Acinetobacter baumannii; read-out: minimal inhibiting concentration, Acinetobacter baumannii isolate 1): 8 µg/mL (≈ 17.1 µM); MIC (Acinetobacter baumannii; read-out: minimal inhibiting concentration, Acinetobacter baumannii isolate 2): > 8 µg/mL; MIC (Acinetobacter baumannii; read-out: minimal inhibiting concentration, Acinetobacter baumannii isolate 3): > 8 µg/mL; MIC (Acinetobacter baumannii; read-out: minimal inhibiting concentration, Acinetobacter baumannii isolate 4): > 8 µg/mL; MIC (Acinetobacter baumannii; read-out: minimal inhibiting concentration, Acinetobacter baumannii isolate 5): 4 µg/mL (≈ 8.56 µM); MIC (Escherichia coli; read-out: minimal inhibiting concentration, Escherichia coli isolate 1): > 8 µg/mL; MIC (Escherichia coli; read-out: minimal inhibiting concentration, Escherichia coli isolate 2): > 8 µg/mL; MIC (Escherichia coli; read-out: minimal inhibiting concentration, Escherichia coli isolate 3): > 8 µg/mL; MIC (Escherichia coli; read-out: minimal inhibiting concentration, Escherichia coli isolate 4): ≤ 2 µg/mL; MIC (Escherichia coli; read-out: minimal inhibiting concentration, Escherichia coli isolate 5): > 8 µg/mL; MIC (Pseudomonas aeruginosa; read-out: minimal inhibiting concentration, Pseudomonas aeruginosa isolate 1): ≤ 2 µg/mL; MIC (Pseudomonas aeruginosa; read-out: minimal inhibiting concentration, Pseudomonas aeruginosa isolate 2): > 8 µg/mL; MIC (Pseudomonas aeruginosa; read-out: minimal inhibiting concentration, Pseudomonas aeruginosa isolate 3): ≤ 2 µg/mL; MIC (Pseudomonas aeruginosa; read-out: minimal inhibiting concentration, Pseudomonas aeruginosa isolate 4): > 8 µg/mL; MIC (Pseudomonas aeruginosa; read-out: minimal inhibiting concentration, Pseudomonas aeruginosa isolate 5): > 8 µg/mL |
| Gentamicin [Gent.] | R | R | I | R | R | R | R | R | R | R | R | R | R | S | S | S | S | I | R | R | minimal inhibiting concentration (Klebsiella ssp.; Klebsiella ssp. isolate 1): > 8 µg/mL; minimal inhibiting concentration (Klebsiella ssp.; Klebsiella ssp. isolate 2): > 8 µg/mL; minimal inhibiting concentration (Klebsiella ssp.; Klebsiella ssp. isolate 3): 8 µg/mL; minimal inhibiting concentration (Klebsiella ssp.; Klebsiella ssp. isolate 4): > 8 µg/mL; minimal inhibiting concentration (Klebsiella ssp.; Klebsiella ssp. isolate 5): > 8 µg/mL; minimal inhibiting concentration (Acinetobacter baumannii; [1]): > 8 µg/mL; minimal inhibiting concentration (Acinetobacter baumannii; [2]): > 8 µg/mL; minimal inhibiting concentration (Acinetobacter baumannii; [3]): > 8 µg/mL; minimal inhibiting concentration (Acinetobacter baumannii; [4]): > 8 µg/mL; minimal inhibiting concentration (Acinetobacter baumannii; [5]): > 8 µg/mL; minimal inhibiting concentration (Escherichia coli; Escherichia coli isolate 1): > 8 µg/mL; minimal inhibiting concentration (Escherichia coli; Escherichia coli isolate 2): > 8 µg/mL; minimal inhibiting concentration (Escherichia coli; Escherichia coli isolate 3): > 8 µg/mL; minimal inhibiting concentration (Escherichia coli; Escherichia coli isolate 4): ≤ 2 µg/mL; minimal inhibiting concentration (Escherichia coli; Escherichia coli isolate 5): ≤ 2 µg/mL; minimal inhibiting concentration (Pseudomonas aeruginosa; [6]): 4 µg/mL; minimal inhibiting concentration (Pseudomonas aeruginosa; [7]): 4 µg/mL; minimal inhibiting concentration (Pseudomonas aeruginosa; [8]): 8 µg/mL; minimal inhibiting concentration (Pseudomonas aeruginosa; [9]): > 8 µg/mL; minimal inhibiting concentration (Pseudomonas aeruginosa; [10]): > 8 µg/mL |
| Trimethoprim-Sulfamethoxazole [TmSm.] | R | S | S | S | R | R | R | R | R | R | R | R | R | R | R | R | R | R | R | R | minimal inhibiting concentration (Klebsiella ssp.; Klebsiella ssp. isolate 1): 2/38; minimal inhibiting concentration (Klebsiella ssp.; Klebsiella ssp. isolate 5): 2/38; minimal inhibiting concentration (Acinetobacter baumannii; [1]): 2/38; minimal inhibiting concentration (Acinetobacter baumannii; [2]): 2/38; minimal inhibiting concentration (Acinetobacter baumannii; [3]): 2/38; minimal inhibiting concentration (Acinetobacter baumannii; [4]): 2/38; minimal inhibiting concentration (Acinetobacter baumannii; [5]): 2/38; minimal inhibiting concentration (Escherichia coli; Escherichia coli isolate 1): 2/38; minimal inhibiting concentration (Escherichia coli; Escherichia coli isolate 2): 2/38; minimal inhibiting concentration (Escherichia coli; Escherichia coli isolate 3): 2/38; minimal inhibiting concentration (Escherichia coli; Escherichia coli isolate 4): 2/38; minimal inhibiting concentration (Escherichia coli; Escherichia coli isolate 5): 2/38; minimal inhibiting concentration (Pseudomonas aeruginosa; [6]): 2/38; minimal inhibiting concentration (Pseudomonas aeruginosa; [7]): 2/38; minimal inhibiting concentration (Pseudomonas aeruginosa; [8]): 2/38; minimal inhibiting concentration (Pseudomonas aeruginosa; [9]): 2/38; minimal inhibiting concentration (Pseudomonas aeruginosa; [10]): 2/38 |
